# Measurements: patent publication US5028605A, “8-alkylaminoimidazo(1,2-a)pyrazines and derivatives, their preparation and their application in therapy” (l'Universite de Montpellier I, priority 1986, dated 1991)
# Columns and labels:
# [1] = system: histamine-induced bronchoconstriction, guinea pigs; assay: Antibronchospastic activity: histamine-induced bronchospasm in anesthetized guinea pigs; assay type: in vivo, guinea pig; conditions: intravenous, 30 seconds before histamine; mean of 5 to 8 determinations
# Protocol: Guinea pigs of both sexes weighing between 400 and 600 g are anesthetized with ethyl carbamate ([…] i.p.). After tracheotomy, the animal is placed under artificial respiration at a constant flowrate (Palmer pump 1 m1/100 g×60/min). A take-off at the tracheal cannula enables the volume of air to be gaged at each inhalation by means of a Marey drum. Bronchospasm is induced by intraveneous (jugular) administration of histamine. For each animal, the dose of histamine (8 to 12 μg/kg) inducing an increase in the recording trace equal to double its initial value is determined. The dose adopted should provide three identical responses at intervals of 10 minutes.
# The test product is administered intraveneously and then, 30 seconds later, histamine is administered again.
# guinea pig trachea = assay: Isolated guinea pig trachea: anti-contractional activity against carbachol; conditions: carbachol 10^-4 M, isolated guinea pig trachea; mean of 5 to 6 determinations
# Protocol: Guinea pigs of both sexes weighing on average 400 to 600 g are sacrificed, and the tracheas are removed and placed at 37° C. in an oxygenated environment (95% O2 -5% CO2) in Krebs fluid of the following composition (mM): NaCl (116), MgSO4 (1.2), KCl (3.7), CaCl2 (2.6), KH2 PO4 (2.2), NaHCO3 (24.9), glucose (10). The tracheal segments are then mounted horizontally between two hooks, one of which is fixed to the base of the isolated organ cell and the other is attached to a myograph under a tension of 0.5 g. The organ is left at rest for one hour and is subjected to four washes. The contraction-inducing reagent (carbachol) is added at a concentration (10^-4 M) greater than the concentration giving the maximum effect. After stabilization of the contractional effect, gradually increasing accumulative amounts of the test products are added to the cell. The bronchodilatory effect is measured as the percentage inhibition of the maximal contraction and EC50 represents the concentration inhibiting this concentration by 50%.
# mice = assay: Motor activity: spontaneous activity in mice (neurosedative effect); assay type: in vivo, mouse; conditions: male mice, 50 minutes
# Protocol: The measurement of the neurosedative effect is based on the test of activity measurements in mice. […] Five minutes after the administration, the animals are placed in activity-measuring cages, which record their movements digitally by means of the interruption of beams of light. The results are recorded in Table IX and expressed as the percentage variation (increase or decrease ) in activity compared with the controls during a period of 50 minutes following the administration.
# duodenum = assay: Antispasmodic activity: barium chloride-induced contraction of isolated rat duodenum (Magnus); conditions: barium chloride 10^-4 M, isolated rat duodenum, 37° C.; mean of 5 to 6 determinations
# Protocol: Fragments of duodenum are removed from male rats (200 g), fasted for 24 hours and killed by decapitation, and are mounted, after being washed, in a thermostatted (37° C.) isolated organ cell and maintained in survival in Tyrode's solution according to Magnus's classical technique.
# The spasmogenic agent used is barium chloride (10^-4 M).
# In the first instance, the spasmogenic agent is added to the nutrient bath and, as soon as the contraction of the organ reaches its maximum, the relaxant agent is added to the medium. Working in relation to a fixed concentration of barium chloride with variable concentrations of relaxant, the ED50 of the latter, capable of reducing the induced contraction by 50%, is determined.
# The results expressed in Table IV below show the ratio ED50 Theo/ED50 product, established on the basis of the mean of the results of 5 to 6 determinations per product (ED50theophylline=8×10^-4 M).
Structure (SMILES),ED50 Theo/ED50 product (bronchospasm induced in guinea pigs) [1],other results
"Brc1cn2c(Br)cnc2c(NCc2ccco2)n1 [Compound 37, 3,6-dibromo-8-furfurylaminoimidazo[1,2-a]pyrazine]",1.4,–
"Brc1cn2ccnc2c(N2CCOCC2)n1 [Compound 11, 6-bromo-8-morpholinoimidazo[1,2-a]pyrazine]",1,"EC50 Theo/EC50 product (anti-contractional activity, trachea) (guinea pig trachea): < 1"
"CCOC(=O)Cc1cn2cc(Br)nc(N)c2n1 [Compound 32, ethyl 8-amino-6-bromoimidazo[1,2-a]pyrazine-2-acetate]",1.6,–
CCNc1nccn2c(Br)cnc12 [Compound 7],–,"EC50 Theo/EC50 product (anti-contractional activity, trachea) (guinea pig trachea): 5"
"CCOC(=O)c1cn2cc(Br)nc(N3CCCCC3)c2n1 [Compound 28, ethyl 6-bromo-8-piperidylimidazo[1,2-a]pyrazine-2-carboxylate]",< 1,–
"CCCCNc1nc(Br)cn2cc(C(=O)OCC)nc12 [Compound 26, ethyl 6-bromo-8-butylaminoimidazo[1,2-a]pyrazine-2-carboxylate]",< 1,–
"Brc1cn2c(Br)cnc2c(N2CCOCC2)n1 [Compound 16, 3,6-dibromo-8-morpholinoimidazo[1,2-a]pyrazine]",1,–
"CCOC(=O)c1cn2cc(Br)nc(NC)c2n1 [Compound 23, ethyl 6-bromo-8-methylaminoimidazo[1,2-a]pyrazine-2-carboxylate]",1,"spontaneous activity - % variation compared with the controls, decrease (.dwnarw.) (mice; 55 μmol/kg intraperitoneally): 43%; spontaneous activity - % variation compared with the controls, decrease (.dwnarw.) (mice; 166 μmol/kg intraperitoneally): 56%"
"CCOC(=O)c1cn2cc(Br)nc(N)c2n1 [Compound 22, ethyl 8-amino-6-bromoimidazo[1,2-a]pyrazine-2-carboxylate]",1.5,–
"CNc1nccn2ccnc12 [Compound 2, 8-methylaminoimidazo[1,2-a]pyrazine]",–,"EC50 Theo/EC50 product (anti-contractional activity, trachea) (guinea pig trachea): < 1"
"c1coc(CNc2nccn3ccnc23)c1 [Compound 39, 8-furfurylaminoimidazo[1,2-a]pyrazine]",–,"EC50 Theo/EC50 product (anti-contractional activity, trachea) (guinea pig trachea): < 1"
"CCOC(=O)c1cn2ccnc(N3CCOCC3)c2n1 [Compound 21, ethyl 8-morpholinylimidazo[1,2-a]pyrazine-2-carboxylate]",< 1,–
"Brc1cn2ccnc2c(NCc2ccco2)n1 [Compound 36, 6-bromo-8-furfurlaminoimidazo[1,2-a]pyrazine]",< 1,–
"CCCNc1nccn2cc(C(=O)OCC)nc12 [Compound 19, ethyl 8-propylaminoimidazo[1,2-a]pyrazine-2-carboxylate]",< 1,–
"CCOC(=O)c1cn2cc(Br)nc(NCCO)c2n1 [Compound 30, ethyl 6-bromo-8-(2-hydroxyethylamino)imidazo[1,2-a]pyrazine-2-carboxylate]",< 1,–
"Nc1nccn2ccnc12 [Compound 1, 8-aminoimidazo[1,2-a]pyrazine]",–,"EC50 Theo/EC50 product (anti-contractional activity, trachea) (guinea pig trachea): 1.5"
"Nc1nc(Br)cn2c(Br)cnc12 [Compound 13, 8-Amino-3,6-dibromoimidazo[1,2-a]pyrazine]",3.5,–

Structure (SMILES),ED50 Theo/ED50 product (bronchospasm induced in guinea pigs) [1],other results
"CCOC(=O)Cc1cn2cc(Br)nc(NC)c2n1 [Compound 33, Ethyl 6-bromo-8-methylaminoimidazo[1,2-a]pyrazine-2-acetate]",1,–
"CNC(=O)c1nc2c(NC)nc(Cl)c(Cl)n2c1Cl [Compound 34, 3,5,6-Trichloro-8-methylamino-N-methylimidazo[1,2-a]pyrazine-2-carboxamide]",1.2,–
"CNc1nc(Br)cn2cc(C(N)=O)nc12 [Compound 31, 6-Bromo-8-methylaminoimidazo[1,2-a]pyrazine-2-carboxamide]",1,–
"CCOC(=O)c1cn2ccnc(N3CCCCC3)c2n1 [Compound 20, ethyl 8-piperidylimidazo[1,2-a]pyrazine-2-carboxylate]",1,–
"CCNc1ncc(Cl)n2ccnc12 [Compound 12, 5-Chloro-8-ethylaminoimidazo[1,2-a]pyrazine]",–,ED50 Theo/ED50 product (antispasmodic activity) (duodenum): 27
"Nc1nccn2c(Br)cnc12 [Compound 5, 8-amino-3-bromoimidazo[1,2-a]pyrazine]",2,"EC50 Theo/EC50 product (anti-contractional activity, trachea) (guinea pig trachea): 11"
"CCOC(=O)c1cn2cc(Br)nc(NC(C)CC)c2n1 (centres unmarked) [Compound 27, ethyl 6-bromo-8-sec-butylaminoimidazo[1,2-a]pyrazine-2-carboxylate]",< 1,–
"CNc1nc(Br)cn2c(Br)cnc12 [Compound 14, 3,6-dibromo-8-methylaminoimidazo[1,2-a]pyrazine]",1.9,–
"c1cn2ccnc2c(N2CCOCC2)n1 [Compound 4, 8-Morpholinoimidazo[1,2-a]pyrazine]",–,"EC50 Theo/EC50 product (anti-contractional activity, trachea) (guinea pig trachea): < 1"
"N#Cc1cn2cc(Br)nc(N3CCOCC3)c2n1 [Compound 35, 6-Bromo-8-morpholinoimidazo[1,2-a]pyrazine-2-carbonitrile]",< 1,–
"CCCNc1nc(Br)cn2cc(C(=O)OCC)nc12 [Compound 25, ethyl 6-bromo-8-propylaminoimidazo[1,2-a]pyrazine-2-carboxylate]",< 1,–
"CCNc1nccn2ccnc12 [Compound 3, 8-ethylaminoimidazo[1,2-a]pyrazine]",–,"EC50 Theo/EC50 product (anti-contractional activity, trachea) (guinea pig trachea): 1"
"Brc1cn2c(Br)cnc2c(N2CCCCC2)n1 [Compound 38, 3,6-dibromo-8-piperidylimidazo[1,2-a]pyrazine]",1.1,–
"CCOC(=O)c1cn2ccnc(NC)c2n1 [Compound 18, ethyl 8-methylaminoimidazo[1,2-a]pyrazine-2-carboxylate]",1,–
"CCNc1nc(Br)cn2cc(C(=O)OCC)nc12 [Compound 24, ethyl 6-bromo-8-ethylaminoimidazo[1,2-a]pyrazine-2-carboxylate]",1,–
"CCOC(=O)c1cn2cc(Br)nc(N3CCOCC3)c2n1 [Compound 29, ethyl 6-bromo-8-morpholinylimidazo[1,2-a]pyrazine-2-carboxylate]",1,–
"CCNc1nc(Br)cn2c(Br)cnc12 [Compound 15, 3,6-dibromo-8-ethylaminoimidazo[1,2-a]pyrazine]",1.6,–
